In patent publication US6559173B1, “3-(heteroarylamino)methylene-1,3-dihydro-2H-indol-2-ones as kinase inhibitors” (Allergan, Inc., priority 2001, dated 2003):

Legend:
[1] = test system: VEGF induced increases in intracellular calcium levels in HUVEC (human umbilical vein endothelial cells); assay: VEGF Stimulated Ca++ signal assay (FLIPR); type: cell-based; settings: VEGF 5 ng/mL; for IC50: 0.01 to 10.0 μM; for inhibition at 10 µM: 30 min pre-incubation
Protocol: VEGF Stimulated Ca^++ Signal in vitro
Automated FLIPR (Fluorometric Imaging Plate Reader) technology was used to screen for inhibitors of VEGF induced increases in intracellular calcium levels in fluorescent dye loaded endothelial cells. HUVEC (human umbilical vein endothelial cells) (Clonetics) were seeded in 96-well fibronectin coated black-walled plates overnight @ 37° C./5%CO2. Cells were loaded with calcium indicator Fluo-4 for 45 minutes at 37° C. Cells were washed 4 times (Original Cell Wash, Labsystems) to remove extracellular dye. Test compounds were reconstituted in 100% DMSO and added to the cells to give a final DMSO concentration of 0.1%. For screening, cells were pre-incubated with test agents for 30 minutes, at a single concentration (10 μM) or at concentrations ranging from 0.01 to 10.0 μM followed by VEGF stimulation (5 ng/mL). Changes in fluorescence at 516 nm were measured simultaneously in all 96 wells using a cooled CCD camera. Data were generated by determining max-min fluorescence levels for unstimulated, stimulated, and drug treated samples. IC50 values for test compounds were calculated from % inhibition of VEGF stimulated responses in the absence of inhibitor.

[2] = target: T1, cytoplasmic domain of the human VEGF receptor (VEGFR-2) (Homo sapiens, UniProt P35968); assay: KDR Assay; type: biochemical; settings: His-VEGFR-2, 3.6 μM ATP, poly-Glu-Tyr (4:1)
T1 construct: The cytoplasmic domain of the human VEGF receptor (VEGFR-2) was expressed as a Histidine-tagged fusion protein; His tag (Histidine-tagged fusion); made in house; host or cells: insect cells (engineered baculovirus)
T1 sequence (P35968 786-1356 limits assumed): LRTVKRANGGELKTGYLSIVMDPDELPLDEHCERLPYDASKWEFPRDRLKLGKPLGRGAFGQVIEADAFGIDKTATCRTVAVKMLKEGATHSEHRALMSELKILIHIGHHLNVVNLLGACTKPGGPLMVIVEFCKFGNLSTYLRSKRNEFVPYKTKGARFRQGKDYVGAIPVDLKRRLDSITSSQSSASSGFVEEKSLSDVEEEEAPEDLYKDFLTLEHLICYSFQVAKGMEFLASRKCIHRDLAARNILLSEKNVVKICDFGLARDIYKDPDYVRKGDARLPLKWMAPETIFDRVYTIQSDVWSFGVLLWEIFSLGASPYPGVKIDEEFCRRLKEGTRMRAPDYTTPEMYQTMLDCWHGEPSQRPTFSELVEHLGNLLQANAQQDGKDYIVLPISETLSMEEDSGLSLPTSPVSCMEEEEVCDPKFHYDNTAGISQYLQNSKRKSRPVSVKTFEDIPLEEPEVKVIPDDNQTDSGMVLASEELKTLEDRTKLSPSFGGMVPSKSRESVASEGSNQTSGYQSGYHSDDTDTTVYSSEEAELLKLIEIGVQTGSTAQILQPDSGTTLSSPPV
Protocol: The cytoplasmic domain of the human VEGF receptor (VEGFR-2) was expressed as a Histidine-tagged fusion protein following infection of insect cells using an engineered baculovirus. His-VEGFR-2 was purified to homogeneity, as determined by SDS-PAGE, using nickel resin chromatography. Kinase assays were performed in 96 well microtiter plates that were coated overnight with 30 μg of poly-Glu-Tyr (4:1) in 10 mM Phosphate Buffered Saline (PBS), pH 7.2-7.4. The plates were incubated with 1% BSA and then washed four times with PBS prior to starting the reaction. Reactions were carried out in 120 μL reaction volumes containing 3.6 μM ATP in kinase buffer (50 mM Hepes buffer pH 7.4, 20 mM MgCl2, 0.1 mM MnCl2 and 0.2 mM Na3VO4). Test compounds were reconstituted in 100% DMSO and added to the reaction to give a final DMSO concentration of 5%. Reactions were initiated by the addition 0.5 ng of purified protein. Following a ten minute incubation at 25° C., the reactions were washed four times with PBS containing 0.05% Tween-20. 100 μl of a monoclonal anti-phosphotyrosine antibody-peroxidase conjugate was diluted 1:10000 in PBS-Tween-20 and added to the wells for 30 minutes. Following four washes with PBS-Tween-20, 100 μl of 0-Phenylenediamine Dihydrochloride in Phosphate-citrate buffer, containing urea hydrogen peroxide, was added to the wells for 7 minutes as a colorimetric substrate for the peroxidase. The reaction was terminated by the addition of 100 μl of 2.5N H2SO4 to each well and read using a microplate ELISA reader set at 492 nm. IC50 values for compound inhibition were calculated directly from graphs of optical density (arbitrary units) versus compound concentration following subtraction of blank values.

[3] = test system: VEGF-induced EBD extravasation; assay: VEGF-induced Dermal Extravasation in Guinea Pig (Miles Assay); type: in vivo; settings: for in-vivo activity (Miles Assay, Table 3): oral administration; for Miles Assay % inhibition: single oral dose 75 mg/kg, vehicle PEG400
Protocol: VEGF-induced Dermal Extravasation in Guinea Pig (Miles Assay). Male Hartley guinea pigs (300-600 g) were anesthetized with isofluorane, sheared, and given a single oral dose of drug or the respective vehicle. Ten minutes prior to the end of drug treatment, guinea pigs were anesthetized with isofluorane, and 0.5% Evans blue dye (EBD) in PBS (13-15 mg/kg dose of EBD) was injected intravenously. After 5 minutes, triplicate intradermal injections of 100 ng rhVEGF165 in 100 μl PBS and of 100 μl PBS alone were administered on the flank. After 20 minutes, each animal was euthanized with Pentosol, and the skin containing the intradermal injection sites was removed for image analysis.
Using an analog video camera coupled to a PC, an image of each trans-illuminated skin sample was captured, and the integrated optical density of each injection site was measured using ImagePro 4. For each skin sample, the difference between the mean optical density of the VEGF sites and mean optical density of the PBS sites is the measure of VEGF-induced EBD extravasation in that animal. These measured values were averaged per study group to determine the mean VEGF-induced EBD extravasation for each experimental condition, and the group means were then compared to assess inhibition of VEGF-induced EBD extravasation in the drug-treated groups relative to the vehicle-treated controls.

Compound | IC50 [2] [nM] | IC50 [1] [nM] | inhibition at 10 µM ([1]; Homo sapiens) [%] | IC50 ([1]; Homo sapiens) [nM] | in-vivo activity (Miles Assay, Table 3) [3] | Miles Assay % inhibition [3] [%]
Cc1cccc2c1C(=CNc1cc[nH]n1)C(=O)N2 [Example 6, 4-Methyl-3-[(1H-pyrazol-3-ylamino)-methylene]-1,3-dihydro-indol-2-one] | 500 | 1070 | 97.6 | ≤ 1000 | significant in-vivo activity | 83
Cc1oc(C(C)(C)C)cc1-c1cc(NC=C2C(=O)Nc3ccc(F)cc32)[nH]n1 [Example 28, 3-{[5-(5-tert-Butyl-2-methyl-furan-3-yl)-2H-pyrazol-3-ylamino]-methylene}-5-fluoro-1,3-dihydro-indol-2-one] | 15700 | – | 43.9 | – | – | –
Cc1oc(C(C)(C)C)cc1-c1cc(NC=C2C(=O)Nc3ccccc32)[nH]n1 [Example 29, 3-{[5-(5-tert-Butyl-2-methyl-furan-3-yl)-2H-pyrazol-3-ylamino]-methylene}-1,3-dihydro-indol-2-one] | 260 | 580 | 99.1 | ≤ 1000 | – | –
Cc1cc(C)cc(-c2cc(NC=C3C(=O)Nc4ccccc43)[nH]n2)c1 [Example 32, 3-{[5-(3,5-Dimethyl-phenyl)2H-pyrazol-3-ylamino]-methylene}-1,3-dihydro-indol-2-one] | 9540 | – | 46.1 | – | – | –
CN(C)c1ccc(-c2cc(NC=C3C(=O)Nc4ccccc43)[nH]n2)cc1 [Example 35, 3-{[5-(4-Dimethylamino-phenyl)-2H-pyrazol-3-ylamino]-methylene}-1,3-dihydro-indol-2-one] | 3490 | – | 93 | 3060 | – | –
CCOc1ccc(-c2cc(NC=C3C(=O)Nc4ccccc43)[nH]n2)cc1 [Example 38, 3-{[5-(4-Ethoxy-phenyl)-2H-pyrazol-3-ylamino]-methylene}-1,3-dihydro-indol-2-one] | 9900 | – | 70 | 6750 | – | –
CC(C)(C)c1cc(NC=C2C(=O)Nc3ccccc32)no1 [Example 41, 3-[(5-tert-Butyl-isoxazol-3-ylamino)-methylene]-1,3-dihydro-indol-2-one] | 780 | – | 96.5 | 10000 | – | –
Cc1onc(NC=C2C(=O)Nc3ccccc32)c1Br [Example 42, 3-[(4-Bromo-5-methyl-isoxazol-3-ylamino)-methylene]-1,3-dihydro-indol-2-one] | 1910 | – | 0.3 | – | – | –
O=C1Nc2ccccc2C1=CNc1ccon1 [Example 43, 3-(Isoxazol-3-ylaminomethylene)-1,3-dihydro-indol-2-one] | 2320 | – | 62.4 | 7560 | – | –
Cc1cc(NC=C2C(=O)Nc3ccccc32)no1 [Example 44, 3-[(5-Methyl-isoxazol-3-ylamino)-methylene]-1,3-dihydro-indol-2-one] | 650 | – | 97 | 2550 | – | –
Cc1noc(NC=C2C(=O)Nc3ccccc32)c1C [Example 45, 3-[(3,4-Dimethyl-isoxazol-5-ylamino)-methylene]-1,3-dihydro-indol-2-one] | 980 | – | 84.9 | 2550 | – | –
CCn1nccc1NC=C1C(=O)Nc2ccccc21 [Example 46, 3-[(2-Ethyl-2H-pyrazol-3-ylamino)-methylene]-1,3-dihydro-indol-2-one] | 11600 | – | 42.4 | – | – | –
Cc1oc(C(C)(C)C)cc1-c1cc(NC=C2C(=O)Nc3ccccc32)n(C)n1 [Example 47, 3-{[5-(5tert-Butyl-2-methyl-furan-3-yl)-2-methyl-2H-pyrazol-3-ylamino]-methylene}-1,3-dihydro-indol-2-one] | 2510 | – | 79.7 | 5920 | – | –
Cc1oc(C(C)(C)C)cc1-c1cc(NC=C2C(=O)Nc3cc(F)ccc32)[nH]n1 [Example 52, 3-{[5-(5-tert-Butyl-2-methyl-furan-3-yl)-2H-pyrazol-3-ylamino]-methylene}-6-fluoro-1,3-dihydro-indol-2-one] | 82300 | – | – | 3400 | – | –

Second part, led by results:

IC50 [2] [nM] | Compound | IC50 [1] [nM] | inhibition at 10 µM ([1]; Homo sapiens) [%] | IC50 ([1]; Homo sapiens) [nM] | in-vivo activity (Miles Assay, Table 3) [3] | Miles Assay % inhibition [3] [%]
330 | Cc1cc(NC=C2C(=O)Nc3ccc(F)cc32)n[nH]1 [Example 26, 5-Fluoro-3-[(5-methyl-1H-pyrazol-3-ylamino)-methylene]-1,3-dihydro-indol-2-one] | 520 | 97.1 | ≤ 1000 | significant in-vivo activity | 100
530 | O=C1Nc2ccc(F)cc2C1=CNc1cc(-c2ccco2)[nH]n1 [Example 27, 5-Fluoro-3-[(5-furan-2-yl-1H-pyrazol-3-ylamino)-methylene]-1,3-dihydro-indol-2-one] | 1050 | 98.6 | ≤ 1000 | – | –
1430 | COc1cccc(-c2cc(NC=C3C(=O)Nc4ccccc43)[nH]n2)c1 [Example 33, 3-{[5-(3-Methoxy-phenyl)-2H-pyrazol-3-ylamino]-methylene}-1,3-dihydro-indol-2-one] | – | 92.9 | 4400 | – | –
12700 | COc1ccccc1-c1cc(NC=C2C(=O)Nc3ccccc32)[nH]n1 [Example 37, 3-{[5-(2-Methoxy-phenyl)-2H-pyrazol-3-ylamino]-methylene}-1,3-dihydro-indol-2-one] | – | 13.6 | – | – | –
1390 | Cc1cc(NC=C2C(=O)Nc3cc(F)ccc32)no1 [Example 48, 6-Fluoro-3-[(5-methyl-isoxazol-3-ylamino)-methylene]-1,3-dihydro-indol-2-one] | – | – | 960 | – | –
980 | O=C1Nc2cc(F)ccc2C1=CNc1cc(-c2ccco2)[nH]n1 [Example 50, 6-Fluoro-3-[(5-furan-2-yl-1H-pyrazol-3-ylamino)-methylene]-1,3-dihydro-indol-2-one] | 590 | – | ≤ 1000 | – | –
1210 | O=C1Nc2cc(F)ccc2C1=CNc1cc(-c2ccccc2)[nH]n1 [Example 51, 6-Fluoro-3-[(5-phenyl-1H-pyrazol-3-ylamino)-methylene]-1,3-dihydro-indol-2-one] | – | – | 2320 | – | –
2220 | O=C1Nc2cc(F)ccc2C1=CNc1cc[nH]n1 [Example 53, 6-Fluoro-3-[(1H-pyrazol-3-ylamino)-methylene]-1,3-dihydro-indol-2-one] | – | – | 1380 | – | –
